Data on three compounds can be found in paper PMC11298695.

The structures appear in SMILES notation. In brackets after ≈: the same amount, converted by molar mass. Like-named read-outs stand apart in the source and are kept apart here.

The conditions of data set [1]: no reference given; cited from earlier work.
For data set [2] the following is noted: ref Nan et al., 2014, Panizzon et al., 2019; cited from earlier work.
The next data set can be described thus: in vivo. The conditions noted are these: male, dog, plasma, beagle dogs, oral, 40 mg/kg.
Data set [3] can be described thus: Powder dissolution (apparent solubility) in pH 6.8 phosphate buffer and water. The format is physicochemical. As to the method: A Model 1,525 system (Waters Corporation, Milford MA, United States) equipped with a photodiode array (PDA) detector (Waters 2998, Milford MA, United States) and a SunFire C18 column (4.6 mm × 250 mm, 5 μm, Waters, Ireland) was used for HPLC analysis. The column temperature was maintained at 37°C and the autosampler temperature was room temperature. The mobile phase consisted of methanol and H2O (70:30, v/v) at a flow rate of 1.0 mL/min. The detection wavelength of the UV detector was 248 nm and the injection volume of sample was 20 µL. The standard curve ranged from 10 μg/mL to 0.078125 μg/mL. […] The powders were sieved using standard sieves to control particle size within 75–150 µm. […] The filtrates were diluted to an appropriate concentration, and analyzed using HPLC.

The next data set in a line: in vitro. The format is cell-based. The note with it: human, Caco-2 cells, read-out: cell viability; for viability at 24 h: Caco-2, 24 h.
Another data set has as its system Caco-2 cells. The data set can be described thus: in vitro. It counts as cell-based. The note with it: Caco-2, CCK-8.
A further data set deals with Caco-2 cell monolayer. The data set can be described thus: Caco-2 cell monolayer transport of DAI (AP to BL). It counts as in vitro ADME. The note with it: 120 min. As to the method: (§1) Caco-2 cells were seeded on 12-well Transwell® (Corning Costar, Lowell, MA, United States) culture plates (pore size 0.4 µm, surface area 1.12 cm^2) at 5 × 10^4 cells/mL. On the 3rd, 5th, 7th, 13th, 18th, and 21st days of culture, the transepithelial electrical resistance (TEER) value was measured using an EVOM2 transmembrane resistance meter (Millipore, United States) to evaluate the integrity of the Caco-2 cell monolayer.
(§2) After washing the Caco-2 cell monolayer twice with prewarmed Hank’s Balanced Salt Solution (HBSS), the transport experiments were performed by adding the final concentration of DAI (0.5 mL) to the apical side (AP) as the donor chamber, and adding HBSS (1.5 mL) to the basolateral side (BL) as the receiving chamber. The plate was incubated at 37°C and 200 μL of sample was collected from the BL side at 30, 45, 60, 90, and 120 min. […]
(§3) The apparent permeability coefficient (P app ) for DAI was calculated using Eq. 3 ([Ndayishimiye et al., 2022]). Papp=dQ/dt∗1/A∗C0 cm/s (3) where Q refers to the cumulative transport amount, i.e., the total drug quantity on the receiving side (μg); dQ/dt represents the transport rate of the drug through the Caco-2 cell monolayer (μg/s); A denotes the chamber membrane area (1.12 cm^2); and C0 is the initial concentration of DAI on the AP side (μg/mL).
Background: Passage across Caco-2 layers is used to estimate intestinal permeability.

Data set [4] can be described thus: Caco-2 cell monolayer transport of DAI (AP to BL). It counts as in vitro ADME. The conditions noted are these: human, Caco-2, DAI 50 μg/mL, read-out: apparent permeability coefficient (P app). As to the method:
as §1, §2, §3

The nature of data set [5]: Environmental pH of dissolution media. The format is physicochemical.
Data set [6] in a line: Efflux function of the Caco-2 cell model with Rhodamine 123. The note with it: human. The format is in vitro ADME.

The Tmax is the time from dosing to the highest level. By Cmax is commonly meant the maximum level reached in the sampled fluid or tissue. One may read the solubility as the dissolved amount per volume that the medium holds. The viability is the share of living cells, or the viability signal relative to a control. For the compound `O=c1c(-c2ccc(O)cc2)coc2cc(O)ccc12` [DAI, 4′,7-dihydroxyisoflavone], the pK a in [1] is reported as 7.43. Moreover, the water solubility in data set [2] is 0.31 µg/mL (≈ 1.22 µM). The time of peak concentration (Tmax) in “in vivo” amounted to 49.8 ± 8.4 min. In “in vivo”, this compound gave a Cmax of 210 ± 40 ng/mL. In addition, the AUC in “in vivo” (read-out: AUC0∼24) amounted to 1740 ± 150 ng·h/mL. Further, in [3] (pH 6.8 buffer), the “peak time of Smax” value turned out to be 45 min. In addition, the solubility at 45 min in data set [3] (pH 6.8 phosphate buffer, aqueous buffer, thermodynamic from solid, pH 6.8 buffer, 37°C, powder dissolution, read-out: maximum apparent solubility (Smax)) was determined as 1.01 ± 0.06 µg/mL (≈ 3.97 µM). Besides, the “time to reach Smax” value in data set [3] (water) is recorded as no more than 240 min. For the same compound, the solubility at 240 min in [3] (water, 37 °C, water, thermodynamic from solid, read-out: maximum apparent solubility (Smax)) stood at 0.48 ± 0.09 µg/mL (≈ 1.89 µM). For the same compound, the viability at 24 h in “in vitro” (1st of five listed concentrations (not assigned)) was found to be 87%; in “in vitro” (2nd of five listed concentrations (not assigned)), 88.1%; in “in vitro” (3rd of five listed concentrations (not assigned)), 94.7%; in “in vitro” (4th of five listed concentrations (not assigned)), 98%; in the data set “in vitro” (5th of five listed concentrations (not assigned)), 94%. The “effect on Caco-2 cells” value in the data set with Caco-2 cells is recorded as “dose-dependent inhibitory effect”. In addition, in the data set on Caco-2 cell monolayer, the “cumulative transport of DAI” value is 9.19 ± 0.65 µg. For the same compound, the Papp at 120 min, 50 μg/mL in data set [4] was 22.8 ± 1.6 ×10⁻⁶ cm/s. The results for the “environmental pH” value in data set [5] (medium pH6.8 buffer) and in data set [5] (medium water (pH 7.0)) were 6.74 ± 0.03 and 3.80 ± 0.06, respectively.
In the case of `C1CNCCN1` [PIP, Piperazine], the viability at 24 h, 16.94 μg/mL in “in vitro” (Caco-2, PIP 16.94 μg/mL) is 85.2%.
A word on the Papp A→B: it is how fast a substance crosses the layer from the apical side. By Papp B→A is commonly meant how fast a substance crosses the layer from the basolateral side. For `COC(=O)c1ccccc1-c1c2ccc(=N)cc-2oc2cc(N)ccc12` [Rhodamine 123], in data set [6] (120 min), the Papp A→B at 120 min is 0.179 ± 0.061 ×10⁻⁶ cm/s and the Papp B→A at 120 min amounted to 0.852 ± 0.016 ×10⁻⁶ cm/s. Besides, the efflux ratio at 120 min in [6] (Papp BL→AP / Papp AP→BL, read-out: Efflux ratio (ER)) came out at 4.76.
